Test results as given in patent US4161527A, “Antibiotic compositions” (priority 1976, dated 1979).
Where a name gives a salt, the structure may show the parent alone.

Assays:
[1] = Dissolution time on addition of 3 ml. of distilled water; type: physicochemical; settings: shaken vigorously
Description: To each of the Samples was added 3 ml. of distilled water and the times of dissolution were measured. […] Provided that, in dissolution, Samples A and B were allowed to stand, while Sample C was shaken vigorously.

[2] = Color of the Samples 3 hours after dissolution; type: physicochemical; settings: 3 ml. of distilled water
[3] = test system: Escherichia coli NIHJ JC-2; assay: Antibacterial spectrum (agar dilution), M.I.C.; type: cell-based; settings: NIHJJC2
[4] = test system: Proteus morganii IFO 3848; assay: Antibacterial spectrum (agar dilution), M.I.C.; type: cell-based; settings: Morganella morganii, IFO3848
Escherichia coli T-7 = assay: Antibacterial spectrum (agar dilution), M.I.C.; type: cell-based; settings: T7
Description: (§1) The antibacterial potency (M.I.C.) and toxicity of TTC
(§2) (1) Antibacterial spectrum (agar dilution)

Escherichia coli 0-111 = assay: Antibacterial spectrum (agar dilution), M.I.C.; type: cell-based; settings: 0111
Description: as §1, §2

[5] = test system: Gram-positive and Gram-negative bacteria; type: cell-based
Krebsiella pneumoniae DT = assay: Antibacterial spectrum (agar dilution), M.I.C.; type: cell-based
[6] = Storage stability (general statement); type: physicochemical
[7] = test system: Proteus vulgaris IFO 3988; assay: Antibacterial spectrum (agar dilution), M.I.C.; type: cell-based; settings: IFO3988
[8] = test system: Staphylococcus aureus FDA 209 P; assay: Antibacterial spectrum (agar dilution), M.I.C.; type: cell-based; settings: FDA209
[9] = test system: local tissue at the sites of injection; assay: Local reactions at the sites of intramuscular injection (general statement); type: in vivo; settings: intramuscularly injected
[10] = Dissolution in a solvent such as distilled water (general statement); type: physicochemical
[11] = test system: Staphylococcus aureus 1840; assay: Antibacterial spectrum (agar dilution), M.I.C.; type: cell-based

Row | Compound | Dissolution time [1] | Color 3 hours after dissolution [2] | MIC [3] | MIC [4] | MIC (Escherichia coli T-7) | MIC (Escherichia coli 0-111) | antibacterial activity [5] | MIC (Krebsiella pneumoniae DT) | stability in storage [6] | MIC [7] | MIC [8] | local reactions at the sites of injection [9] | dissolution [10] | MIC [11]
1 | CN(C)CCn1nnnc1SCC1=C(C(=O)O)N2C(=O)[C@@H](NC(=O)Cc3csc(=N)[nH]3)[C@H]2SC1 [TTC hydrate, 7β-[2-(2-imino-4-thiazolin-4-yl)acetamido]-3-{1-[2-(N,N-dimethylamino)ethyl]-1-H-tetrazol-5-yl}thiomethyl-3-cephem-4-carboxylic acid dihydrochloride hydrate] | 180 s | Reddish yellow |  |  |  |  |  |  |  |  |  |  |  | 
2 | CN(C)CCn1nnnc1SCC1=C(C(=O)O)N2C(=O)[C@@H](NC(=O)Cc3csc(N)n3)[C@H]2SC1.Cl.Cl [TTC, 7β-[2-(2-imino-4-thiazolin-4-yl)acetamido]-3-{1-[2-(N,N-dimethylamino)ethyl]-1H-tetrazol-5-yl}thiomethyl-3-cephem-4-carboxylic acid dihydrochloride] |  |  | 0.2 µg/mL | 0.39 µg/mL | 1.56 µg/mL | 0.05 µg/mL | strong antibacterial activity against Gram-positive and Gram-negative bacteria | 0.1 µg/mL | stable in storage | 1.56 µg/mL | 0.39 µg/mL | necrosis of muscle cells, discoloration or brown degeneration of the local tissue, hyperemia and other local reactions at the sites of injection | rather slow to be dissolved | 0.78 µg/mL
